Test results taken from the supplement of paper PMC10307832.

Columns and labels:
Assay in all cases: relative viability (nuclei count vs DMSO), 5 days (fraction); higher = more cells survive
[1] = compound: C1=CC2=NC=CN=C2C=C1/C=C/3\C(=O)NC(=O)S3 + CC(C)C[C@H](NC(=O)[C@H](Cc1ccccc1)NC(=O)c1cnccn1)B(O)O [Bortezomib] (partner 0.002 µM)
Summary of the method: (§1)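 Each reported value is a median over duplicate plates. It expresses relative viability: treated-well nuclei count divided by vehicle-well nuclei count. Lung cancer cell lines in 1536-well plates were dosed by pin tool a day after seeding, alone with one drug or with a fixed anchor-drug dose plus five library-drug doses (not always all listed) in √10 steps, and nuclei were counted after 5 days.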

[2] = compound: C1=CC2=NC=CN=C2C=C1/C=C/3\C(=O)NC(=O)S3 + CS(=O)(=O)N1CCN(Cc2cc3nc(-c4cccc5[nH]ncc45)nc(N4CCOCC4)c3s2)CC1 [Pictilisib] (partner 1 µM)
Summary of the method: as §1

[3] = compound: C1=CC2=NC=CN=C2C=C1/C=C/3\C(=O)NC(=O)S3 + O=C(c1cc(Cc2n[nH]c(=O)c3ccccc23)ccc1F)N1CCN(C(=O)C2CC2)CC1 [Olaparib] (partner 8 µM)
Summary of the method: as §1

BGJ398 + Dasatinib = compound: CCN1CCN(c2ccc(Nc3cc(N(C)C(=O)Nc4c(Cl)c(OC)cc(OC)c4Cl)ncn3)cc2)CC1 [BGJ398] + Cc1nc(Nc2ncc(C(=O)Nc3c(C)cccc3Cl)s2)cc(N2CCN(CCO)CC2)n1 [Dasatinib] (partner 0.075 µM)
Summary of the method: as §1

Row | Cell Line | relative viability ([1]; first compound 0.02 µM) | relative viability ([1]; first compound 0.06325 µM) | relative viability ([1]; first compound 0.2 µM) | relative viability ([1]; first compound 0.6325 µM) | relative viability ([1]; first compound 2 µM) | relative viability ([2]; first compound 0.02 µM) | relative viability ([2]; first compound 0.06325 µM) | relative viability ([2]; first compound 0.2 µM) | relative viability ([2]; first compound 0.6325 µM) | relative viability ([2]; first compound 2 µM) | relative viability ([3]; first compound 0.02 µM) | relative viability ([3]; first compound 0.06325 µM) | relative viability ([3]; first compound 0.2 µM) | relative viability ([3]; first compound 0.6325 µM) | relative viability ([3]; first compound 2 µM) | relative viability (BGJ398 + Dasatinib; first compound 0.01 µM) | relative viability (BGJ398 + Dasatinib; first compound 0.03162 µM) | relative viability (BGJ398 + Dasatinib; first compound 0.1 µM) | relative viability (BGJ398 + Dasatinib; first compound 0.3162 µM) | relative viability (BGJ398 + Dasatinib; first compound 1 µM)
1 | HCC-78 | 0.497 | 0.378 | 0.588 | 0.346 | 0.275 | 0.267 | 0.202 | 0.246 | 0.206 | 0.169 | 0.792 | 0.72 | 0.786 | 0.861 | 0.619 | 0.385 | 0.375 | 0.34 | 0.388 | 0.362
2 | HCC-366 | 1 | 1.02 | 1.05 | 1.06 | 1.01 | 0.151 | 0.0838 | 0.14 | 0.11 | 0.117 | 0.318 |  | 0.374 | 0.351 | 0.373 | 0.626 | 0.681 | 0.793 | 0.6 | 0.558
3 | HCC-827 | 0.981 | 0.912 | 1 | 1.05 | 0.973 | 1.13 | 0.938 | 0.996 | 0.845 | 0.969 | 0.654 | 0.528 | 0.585 | 0.593 | 0.662 | 0.223 | 0.123 | 0.329 | 0.249 | 0.325
4 | HOP-62 | 0.908 | 0.819 | 1.07 | 0.757 | 0.707 | 0.409 | 0.92 | 0.695 | 0.861 | 0.662 | 0.481 | 0.389 | 0.357 | 0.452 | 0.424 | 0.745 | 0.656 | 0.678 | 0.733 | 0.57
5 | LC-2-ad | 0.964 | 1.02 | 1.09 | 0.943 | 0.829 | 0.465 | 0.533 | 0.478 | 0.411 | 0.335 | 0.63 | 0.811 | 0.692 | 0.611 | 0.344 | 0.572 | 0.756 | 0.566 | 0.538 | 0.433
6 | LCLC-97TM1 | 0.624 | 0.515 | 0.573 | 0.776 | 0.125 | 0.186 | 0.185 | 0.21 | 0.141 | 0.178 | 0.354 | 0.372 | 0.36 | 0.334 | 0.281 | 0.671 | 0.92 | 0.773 | 0.646 | 0.921
7 | LCLC-103H | 1.08 | 1.05 | 1.06 | 1 | 0.931 | 0.61 | 0.768 | 0.706 | 0.539 | 0.531 | 0.75 | 0.788 | 0.727 | 0.725 | 0.729 | 0.471 | 0.446 | 0.447 | 0.487 | 0.381
8 | LOU-NH91 | 0.415 | 0.517 | 0.512 | 0.562 | 0.513 | 0.528 | 0.535 | 0.535 | 0.498 | 0.484 | 0.845 | 0.925 | 0.892 | 0.883 | 0.85 | 0.522 |  | 0.59 | 0.459 | 0.522
9 | LU99A | 1.09 | 1.32 | 1.41 | 1.07 | 0.747 | 0.33 | 0.365 | 0.317 | 0.341 | 0.245 | 0.28 | 0.416 | 0.276 | 0.243 | 0.26 | 0.569 | 0.487 | 0.518 | 0.321 | 0.409
10 | LXF-289 | 0.977 | 0.985 | 1.05 | 0.941 | 1.02 | 0.723 | 0.843 | 0.801 | 0.771 | 0.635 | 0.993 | 0.997 | 1.06 | 1.01 | 1.01 | 0.194 | 0.218 | 0.184 | 0.254 | 0.156
11 | NCI-H23 | 0.954 | 1.37 | 1.27 | 0.843 | 0.678 | 0.396 | 0.688 | 0.557 | 0.517 | 0.504 | 0.236 | 0.326 | 0.313 | 0.35 | 0.255 | 0.776 | 0.834 | 0.844 | 0.792 | 0.748
12 | NCI-H322M | 1.18 | 1.1 | 1.26 | 1.19 | 0.973 | 0.477 | 0.476 | 0.586 | 0.518 | 0.434 | 0.733 | 0.827 | 0.767 | 0.801 | 0.641 | 0.268 | 0.227 | 0.227 | 0.262 | 0.236
13 | NCI-H441 | 0.272 | 0.289 |  | 0.403 | 0.494 | 0.453 | 0.48 | 0.447 | 0.573 | 0.477 | 0.539 | 0.708 | 0.559 | 0.481 | 0.345 | 0.577 | 0.83 | 0.542 | 0.672 | 0.607
14 | NCI-H460 | 1.01 | 1.05 | 1.03 | 0.932 | 0.942 | 0.376 | 0.281 | 0.338 | 0.324 | 0.199 | 0.391 | 0.361 | 0.438 | 0.45 | 0.397 | 0.479 | 0.523 | 0.46 | 0.522 | 0.498
15 | NCI-H520 | 0.793 | 0.632 | 0.538 | 0.489 | 0.657 | 0.306 | 0.356 | 0.32 | 0.242 | 0.246 | 0.283 | 0.321 | 0.352 | 0.298 | 0.345 | 0.138 | 0.177 | 0.138 | 0.142 | 0.146
16 | NCI-H596 | 1.36 | 1.06 | 1.17 | 0.876 |  | 0.465 | 0.384 | 0.394 | 0.419 | 0.377 | 0.712 | 0.719 | 0.677 | 0.726 | 0.729 | 0.515 | 0.49 | 0.576 | 0.506 | 0.474
